Test results: US12286435B2, “Compound having benzo seven-membered ring structure, preparation method therefor, and use thereof” (BIONNA (BEIJING) MEDICAL TECHNOLOGY CO., LTD., priority 2019, dated 2025)
Values joined by “and” are separate entries in the source; they are usually repeats but may differ in a detail not shown here. Equal entries are not always repeated.

How the values were obtained:
[1] = target: BRD4 BD1 protein (Homo sapiens (Human), UniProt O60885); assay: Fluorescence polarization binding affinity (Ki) with BRD4 BD1 protein; settings: fluorescence polarization; Ki calculated from IC50
[2] = target: BRD4 BD2 protein (Homo sapiens (Human), UniProt O60885); assay: Fluorescence polarization binding affinity (Ki) with BRD4 BD2 protein; parameters: BRD4 BD2 Ki: reference not given here; settings: fluorescence polarization; Ki calculated from IC50
[3] = system: multiple myeloma MM.1S cell line; assay: Cell viability (CCK-8), multiple myeloma MM.1S; assay type: cell-based; settings: MM.1S cells, 4 days, CCK-8, 50% inhibition of cell growth
Description: 3. Determination of cell viability of the compound
The sample to be tested was dissolved with 100% dimethyl sulfoxide to prepare a 20 mM stock solution of the compound, which was diluted with 100% dimethyl sulfoxide to the highest compound concentration required for the experiment (2.5 mM).
First, 145 uL of a complete cell culture medium was added to wells B1-G1 of a 96-well flat-bottomed tansparent cell culture plate, and 100 uL of the complete medium was added to wells B2-G12, respectively. Then, 5 uL of the 2.5 mM solution of the compound was added to wells B1-D1 and E1-G1 respectively, and then diluted gradiently by 3-folds to B12-D12 and E12-G12 in sequence. Finally, 50 uL of the solution of the cells to be tested was added to each well, with about 3000-5000 cells per well, and a total volume of 150 uL per well.
In the experiment, in addition to the tested compound, two other control groups were set up: 1) a control group adding the cells and the complete medium, but without adding the compound; 2) a control group adding the complete medium only, without adding the cells and the compound. The 96-well plate was placed in a 37° C. cell culture incubator containing 5% carbon dioxide for 4 days, added with 15 uL of a CCK-8 reagent per well, and then incubated at 37° C. for 2-4 hours. The 96-well plate was read on a TECAN microplate reader, and the absorbance value at 450 nm wavelength was taken.
The effect of different concentrations of the compound on cell viability was calculated by the following equation: [absorption value of the experimental group−absorption value of pure cell culture medium without the cells or the compound]/[absorption value of the control group with the tumor cells but no testing compound−absorption value of pure cell culture medium without the cell or the compound]×100%.
The above data were precessed by software, and the IC50 value was the concentration of the compound corresponding to the 50% inhibition rate of cell growth.
Based on the above test method of the compound on cell viability, a variety of […] cancer cell lines were tested, using multiple myeloma MM.1S, breast cancer MDA-MB-231 and leukemia MV4-11 cell lines as exemples. Using this test method, the IC50 values of partial compounds in the examples of the present invention measured in multiple myeloma MM.1S, breast cancer MDA-MB-231 cell lines and leukemia MV4-11 cell lines were shown in Table 2.

SMILES | Ki [1] | Ki [2] | IC50 ([3]; Homo sapiens, MM1.S, 96 h) | IC50 [3] | BRD4 BD2 Ki [2]
Cc1nnn2c1-c1ccc(-c3cnn(C)c3)cc1C(Nc1ccccc1OCCO)CC2 (stereo not shown) [LB90, 2-(2-((1-methyl-9-(1-methyl-1H-pyrazol-4-yl)-6,7-dihydro-5H-benzo[c][1,2,3]triazolo[1,5-a]azepin-7-yl)amino)phenoxy)ethanol] | 134 nM | 16.5 nM | 51.9 nM |  | 
COC(=O)c1cccc(NC2CCn3nnc(C)c3-c3ccc(-c4cnn(C)c4)cc32)c1 (stereo not shown) [LB92, methyl 3-((1-methyl-9-(1-methyl-1H-pyrazol-4-yl)-6,7-dihydro-5H-benzo[c][1,2,3]triazolo[1,5-a]azepin-7-yl)amino)benzoate] | 133 nM | 17.9 nM | 121 nM |  | 
Cc1nnn2c1-c1ccc(-c3cnn(C)c3)cc1C(Nc1cccc(C(=O)O)c1)CC2 (stereo not shown) [LB97, 3-((1-methyl-9-(1-methyl-1H-pyrazol-4-yl)-6,7-dihydro-5H-benzo[c][1,2,3]triazolo[1,5-a]azepin-7-yl)amino)benzoic acid] | 355 nM | 27.9 nM | 8160 nM |  | 
Cc1nnn2c1-c1ccccc1C(Nc1cccc3cnccc13)CC2 (stereo not shown) [LB103, N-(isoquinolin-5-yl)-1-methyl-6,7-dihydro-5H-benzo[c][1,2,3]triazolo [1,5-a]azepin-7-amine] | 607 nM | 95.2 nM | 389 nM |  | 
Cc1nnn2c1-c1ccc(-c3cnn(C)c3)cc1C(Nc1ccc(CN(C)C)cc1)CC2 (stereo not shown) [LB138, N-(4-((dimethylamino)methyl)phenyl)-1-methyl-9-(1-methyl-1H-pyrazol-4-yl)-6,7-dihydro-5H-benzo[c][1,2,3]triazolo[1,5-a]azepin-7-amine] | 1040 nM | 203 nM | 961 nM |  | 
Cc1nnn2c1-c1ccc(-c3cnn(C)c3)cc1C(Nc1ccccc1C(=O)O)CC2 (stereo not shown) [LB173, 2-((1-methyl-9-(1-methyl-1H-pyrazol-4-yl)-6,7-dihydro-5H-benzo[c][1,2,3]triazolo[1,5-a]azepin-7-yl)amino)benzoic acid] | 179 nM | 32.1 nM | 1200 nM |  | 
CNC(=O)c1cccc(NC2CCn3nnc(C)c3-c3ccc(-c4cnn(C)c4)cc32)c1 (stereo not shown) [LB181] | 132 nM | 14.5 nM | 168 nM |  | 
Cc1nnn2c1-c1ccc(-c3cnn(C)c3)cc1C(Nc1ccccc1CC(=O)O)CC2 (stereo not shown) [LB185, 2-(2-((1-methyl-9-(1-methyl-1H-pyrazol-4-yl)-6,7-dihydro-5H-benzo[c][1,2,3]triazolo[1,5-a]azepin-7-yl)amino)phenyl)acetic acid] | 218 nM | 14.5 nM | 1620 nM |  | 
Cc1nnn2c1-c1ccc(-c3cnn(C)c3)cc1C(Nc1ccc(F)cc1F)CC2 (stereo not shown) [LC01, N-(2,4-difluorophenyl)-1-methyl-9-(1-methyl-1H-pyrazol-4-yl)-6,7-dihydro-5H-benzo[c][1,2,3]triazolo[1,5-a]azepin-7-amine] | 56 nM | 28.4 nM and 9.08 nM | 48.8 nM |  | 
Cc1nnn2c1-c1ccc(-c3cnn(C)c3)cc1C(Nc1cccc(C#N)c1)CC2 (stereo not shown) [LC07, 3-((1-methyl-9-(1-methyl-1H-pyrazol-4-yl)-6,7-dihydro-5H-benzo[c][1,2,3]triazolo[1,5-a]azepin-7-yl)amino)benzonitrile] | 134 nM | 8.4 nM and 18.8 nM | 165 nM |  | 
Cc1nnn2c1-c1ccc(-c3cnn(C)c3)cc1C(Nc1cccc(CC#N)c1)CC2 (stereo not shown) [LC20, 2-(3-((1-methyl-9-(1-methyl-1H-pyrazol-4-yl)-6,7-dihydro-5H-benzo[c][1,2,3]triazolo[1,5-a]azepin-7-yl)amino)phenyl)acetonitrile] | 59.6 nM | 15 nM | 25.3 nM |  | 

Further lines, results first:

Ki [1] | Ki [2] | IC50 ([3]; Homo sapiens, MM1.S, 96 h) | IC50 [3] | BRD4 BD2 Ki [2] | SMILES
81.4 nM | 11.6 nM | 13.4 nM |  |  | Cc1nnn2c1-c1ccc(-c3cnn(C)c3)cc1C(Nc1cccc3cccnc13)CC2 (stereo not shown) [LB91, 1-methyl-9-(1-methyl-1H-pyrazol-4-yl)-N-(quinolin-8-yl)-6,7-dihydro-5H-benzo[c][1,2,3]triazolo[1,5-a]azepin-7-amine]
52.4 nM | 9.1 nM | 21.5 nM |  |  | Cc1nnn2c1-c1ccc(-c3cnn(C)c3)cc1C(Nc1ccc3[nH]ccc3c1)CC2 (stereo not shown) [LB98, N-(1H-indo1-5-yl)-1-methyl-9-(1-methyl-1H-pyrazol-4-yl)-6,7-dihydro-5H-benzo[c][1,2,3]triazolo[1,5-a]azepin-7-amine]
38 nM | 7.4 nM | 11.2 nM |  |  | Cc1nnn2c1-c1ccc(-c3cnn(C)c3)cc1C(Nc1ccc3cc[nH]c3c1)CC2 (stereo not shown) [LB113, N-(1H-indo1-6-yl)-1-methyl-9-(1-methyl-1H-pyrazol-4-yl)-6,7-dihydro-5H-benzo[c][1,2,3]triazolo[1,5-a]azepin-7-amine]
45.3 nM | 8.8 nM | 1.2 nM |  |  | Cc1nnn2c1-c1ccc(-c3cnn(C)c3)cc1C(Nc1cccc3[nH]ccc13)CC2 (stereo not shown) [LB114, N-(1H-indo1-4-yl)-1-methyl-9-(1-methyl-1H-pyrazol-4-yl)-6,7-dihydro-5H-benzo[c][1,2,3]triazolo[1,5-a]azepin-7-amine]
89.3 nM | 22.8 nM | 153 nM |  |  | CNC(=O)c1ccc(NC2CCn3nnc(C)c3-c3ccc(-c4cnn(C)c4)cc32)cc1 (stereo not shown) [LB128]
124 nM | 48.3 nM | 120 nM |  |  | Cc1nnn2c1-c1ccc(-c3cnn(C)c3)cc1C(Nc1ccc(CCN(C)C)cc1)CC2 (stereo not shown) [LB139, N-(4-(2-(dimethylamino)ethyl)phenyl)-1-methyl-9-(1-methyl-1H-pyrazol-4-yl)-6,7-dihydro-5H-benzo[c][1,2,3]triazolo[1,5-a]azepin-7-amine]
69 nM | 11.4 nM |  | 114 nM |  | CNC(=O)Cc1ccc(NC2CCn3nnc(C)c3-c3ccc(-c4cnn(C)c4)cc32)cc1 (stereo not shown) [LB142]
78.3 nM | 9.61 nM | 118 nM |  |  | Cc1nnn2c1-c1ccc(-c3cnn(C)c3)cc1C(Nc1ccc(O)cc1)CC2 (stereo not shown) [LB143, 4-((1-methyl-9-(1-methyl-1H-pyrazol-4-yl)-6,7-dihydro-5H-benzo[c][1,2,3]triazolo[1,5-a]azepin-7-yl)amino)phenol]
75.5 nM | 16.7 nM | 26.2 nM |  |  | Cc1nnn2c1-c1ccc(-c3cnn(C)c3)cc1C(Nc1cccc(N(C)C)c1)CC2 (stereo not shown) [LB152, N^1,N^1-dimethyl-N^3-(1-methyl-9-(1-methyl-1H-pyrazol-4-yl)-6,7-dihydro-5H-benzo[c][1,2,3]triazolo[1,5-a]azepin-7-yl)benzene-1,3-diamine]
74.8 nM | 4.78 nM | 152 nM |  |  | Cc1nnn2c1-c1ccc(-c3cnn(C)c3)cc1C(Nc1ccccc1O)CC2 (stereo not shown) [LB170, 2-((1-methyl-9-(1-methyl-1H-pyrazol-4-yl)-6,7-dihydro-5H-benzo[c][1,2,3]triazolo[1,5-a]azepin-7-yl)amino)phenol]
26.1 nM | 7.06 nM | 22.8 nM | 20.8 nM |  | Cc1nnn2c1-c1ccc(-c3cnn(C)c3)cc1C(Nc1cccc(O)c1)CC2 (stereo not shown) [LB171, 3-((1-methyl-9-(1-methyl-1H-pyrazol-4-yl)-6,7-dihydro-5H-benzo[c][1,2,3]triazolo[1,5-a]azepin-7-yl)amino)phenol]
82.2 nM | 13.7 nM | 36.6 nM |  |  | CNC(=O)c1ccccc1NC1CCn2nnc(C)c2-c2ccc(-c3cnn(C)c3)cc21 (stereo not shown) [LB186]
32.9 nM | 1.33 nM and 4.03 nM | 59 nM |  |  | Cc1nnn2c1-c1ccc(-c3cnn(C)c3)cc1C(Nc1ccc(CC#N)cc1)CC2 (stereo not shown) [LC03, 2-(4-((1-methyl-9-(1-methyl-1H-pyrazol-4-yl)-6,7-dihydro-5H-benzo[c][1,2,3]triazolo[1,5-a]azepin-7-yl)amino)phenyl)acetonitrile]
15.5 nM |  | 39.3 nM |  | <Kd | Cc1nnn2c1-c1ccc(-c3cnn(C)c3)cc1C(Nc1ccccc1CC#N)CC2 (stereo not shown) [LC09, 2-(2-((1-methyl-9-(1-methyl-1H-pyrazol-4-yl)-6,7-dihydro-5H-benzo[c][1,2,3]triazolo[1,5-a]azepin-7-yl)amino)phenyl)acetonitrile]
34.6 nM | 15.2 nM | 4.7 nM |  |  | Cc1nnn2c1-c1ccc(-c3cnn(C)c3)cc1C(Nc1ccc(C#N)cc1)CC2 (stereo not shown) [LC18, 4-((1-methyl-9-(1-methyl-1H-pyrazol-4-yl)-6,7-dihydro-5H-benzo[c][1,2,3]triazolo[1,5-a]azepin-7-yl)amino)benzonitrile]
